Test results reported in patent US20240261367A1, “CYCLIC PEPTIDE IMMUNOMODULATORS” (priority 2021, published 2024).

Biological target: T1, PD-1/PD-L1 (Homo sapiens, UniProt Q9NZQ7)
T1 construct: TVMV protease site linker (C); made in house; host or cells: HEK293T cells
Experiment: PD-1/PD-L1 Homogenous Time-Resolved Fluorescence (HTRF) binding assay
Conditions: PD-L1-His (10 nM) pre-incubated with inhibitor 15 m, then PD-1-Ig (20 nM)
Description: Methods for Testing the Ability of Macrocyclic Peptides to Compete for the Binding of PD-1 to PD-L1 Using Homogenous Time-Resolved Fluorescence (HTRF) Binding Assays
The ability of the compounds of formula (I) to bind to PD-L1 was investigated using a PD-1/PD-L1 Homogenous Time-Resolved Fluorescence (HTRF) binding assay.
Homogenous Time-Resolved Fluorescence (HTRF) Binding Assay
The interaction of PD-1 and PD-L1 can be assessed using soluble, purified preparations of the extracellular domains of the two proteins. The PD-1 and PD-L1 protein extracellular domains were expressed as fusion proteins with detection tags, for PD-1, the tag was the Fc portion of Immunoglobulin (PD-1-Ig) and for PD-L1 it was the 6 histidine motif (PD-L1-His). All binding studies were performed in an HTRF assay buffer consisting of dPBS supplemented with 0.1% […] bovine serum albumin and 0.05% (v/v) Tween-20. […] HTRF detection was achieved using europium crypate-labeled anti-Ig (1 nM final) and allophycocyanin (APC) labeled anti-His (20 nM final). Antibodies were diluted in HTRF detection buffer and 5 μl was dispensed on top of the binding reaction. The reaction mixture was allowed to equilibrate for 30 minutes and the resulting signal (665 nm/620 nm ratio) was obtained using an EnVision fluorometer. Additional binding assays were established between the human proteins PD-1-Ig/PD-L2-His (20 & 5 nM, respectively) and CD80-His/PD-L1-Ig (100 & 10 nM, respectively).
Recombinant Proteins: Human PD-1 (25-167) with a C-terminal human Fc domain of immunoglobulin G (Ig) epitope tag [hPD-1 (25-167)-3S-IG] and human PD-L1 (18-239) with a C-terminal His epitope tag [hPD-L1(18-239)-TVMV-His] were expressed in HEK293T cells and purified sequentially by ProteinA affinity chromatography and size exclusion chromatography. Human PD-L2-His and CD80-His was obtained through commercial sources.
Table 1 lists the IC50 values for representative examples of this disclosure measured in the PD-1/PD-L1 Homogenous Time-Resolved Fluorescence (HTRF) binding assay.

T1 sequence (Q9NZQ7 18-239): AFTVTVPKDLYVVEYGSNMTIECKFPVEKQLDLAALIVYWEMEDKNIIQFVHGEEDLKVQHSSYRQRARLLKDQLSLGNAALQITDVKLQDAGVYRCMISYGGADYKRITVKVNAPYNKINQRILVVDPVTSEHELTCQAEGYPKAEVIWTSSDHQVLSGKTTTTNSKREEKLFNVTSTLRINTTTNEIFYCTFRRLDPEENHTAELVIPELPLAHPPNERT

Work on CCCC[C@H]1C(=O)N(C)[C@@H](CCCC)C(=O)N[C@@H](CC(C)C)C(=O)N[C@H](C(=O)NCC(=O)N[C@@H](Cc2cn(CCOCCOCCOCCOCCOCCOCCOCCOCCOCCOCCOCCNC(=O)CC[C@H](NC(=O)CCCCCCCCCCCCCCCCC(=O)O)C(=O)O)nn2)C(=O)OCC)CSCC(=O)N[C@@H](Cc2ccc(O)cc2)C(=O)N(C)[C@@H](C)C(=O)N[C@@H](CC(N)=O)C(=O)N2CCC[C@H]2C(=O)N[C@@H](CN)C(=O)N[C@@H](CC(C)C)C(=O)N2C[C@H](O)C[C@H]2C(=O)N[C@@H](Cc2c[nH]c3ccccc23)C(=O)N[C@@H](CCN)C(=O)N[C@@H](CC2=CC(CC(=O)O)c3ccccc32)C(=O)N1C (some centres unmarked) [Example 1025] yielded an IC50 of 12 nM.
Work on CCCC[C@H]1C(=O)N(C)[C@@H](CCCC)C(=O)N[C@@H](CC(C)C)C(=O)N[C@H](C(=O)NCC(=O)N[C@@H](Cc2cn(CCOCCOCCOCCOCCOCCOCCOCCOCCOCCOCCOCCNC(=O)CC[C@H](NC(=O)CCCCCCCCCCCCCCCCC(=O)O)C(=O)OCC)nn2)C(=O)O)CSCC(=O)N[C@@H](Cc2ccc(O)cc2)C(=O)N(C)[C@@H](C)C(=O)N[C@@H](CC(N)=O)C(=O)N2CCC[C@H]2C(=O)N[C@@H](CN)C(=O)N[C@@H](CC(C)C)C(=O)N2C[C@H](O)C[C@H]2C(=O)N[C@@H](Cc2c[nH]c3ccccc23)C(=O)N[C@@H](CCN)C(=O)N[C@@H](CC2=CC(CC(=O)O)c3ccccc32)C(=O)N1C (some centres unmarked) [Example 1024] yielded an IC50 of 13 nM.
In the case of CCCC[C@H]1C(=O)N(C)[C@@H](CCCC)C(=O)N[C@@H](CC(C)C)C(=O)N[C@H](C(=O)NCC(=O)N[C@@H](Cc2cn(CCOCCOCCOCCOCCOCCOCCOCCOCCOCCOCCOCCNC(=O)CC[C@H](NC(=O)CCCCCCCCCCCCCCCCC(=O)O)C(=O)O)nn2)C(=O)O)CSCC(=O)N[C@@H](Cc2ccc(O)cc2)C(=O)N(C)[C@@H](C)C(=O)N[C@@H](CC(N)=O)C(=O)N2CCC[C@H]2C(=O)N[C@@H](CNCC(O)C(O)C(O)C(O)C(O)CO)C(=O)N[C@@H](CC(C)C)C(=O)N2C[C@H](O)C[C@H]2C(=O)N[C@@H](Cc2c[nH]c3ccccc23)C(=O)N[C@@H](CCN)C(=O)N[C@@H](Cc2cn(CC(=O)O)c3ccccc23)C(=O)N1C (some centres unmarked) [Example 8001], the IC50 is reported as 12 nM.
In the case of CCCC[C@H]1C(=O)N(C)[C@@H](CCCC)C(=O)N[C@@H](CC(C)C)C(=O)N[C@H](C(=O)NCC(=O)N[C@@H](Cc2cn(CCOCCOCCOCCOCCOCCOCCOCCOCCOCCOCCOCCNC(=O)CC[C@H](NC(=O)CCCCCCCCCCCCCCCCC(=O)O)C(=O)O)nn2)C(=O)O)CSCC(=O)N[C@@H](Cc2ccc(O)cc2)C(=O)N(C)[C@@H](C)C(=O)N[C@@H](CC(N)=O)C(=O)N2CCC[C@H]2C(=O)N[C@@H](CNC(=O)OC(C)C)C(=O)N[C@@H](CC(C)C)C(=O)N2C[C@H](O)C[C@H]2C(=O)N[C@@H](Cc2c[nH]c3ccccc23)C(=O)N[C@@H](CCN)C(=O)N[C@@H](Cc2cn(CC(=O)O)c3ccccc23)C(=O)N1C [Example 1003], the IC50 is reported as 9.1 nM.
For CCCC[C@H]1C(=O)N(C)[C@@H](CCCC)C(=O)N[C@@H](CC(C)C)C(=O)N[C@H](C(=O)NCC(=O)N[C@@H](Cc2cn(CCOCCOCCOCCOCCOCCOCCOCCOCCOCCOCCOCCNC(=O)CC[C@H](NC(=O)CCCCCCCCCCCCCCCCC(=O)O)C(=O)O)nn2)C(=O)O)CSCC(=O)N[C@@H](Cc2ccc(O)cc2)C(=O)N(C)[C@@H](C)C(=O)N[C@@H](CC(N)=O)C(=O)N2CCC[C@H]2C(=O)N[C@@H](CNC(=O)OCc2oc(=O)oc2C)C(=O)N[C@@H](CC(C)C)C(=O)N2C[C@H](O)C[C@H]2C(=O)N[C@@H](Cc2c[nH]c3ccccc23)C(=O)N[C@@H](CCNC(=O)OCC)C(=O)N[C@@H](Cc2cn(CC(=O)O)c3ccccc23)C(=O)N1C [Example 7010], the IC50 was 46 nM.
